Test results as given in ChEMBL document CHEMBL1129446, “Hydroxamic acid-based bisubstrate analog inhibitors of Ras farnesyl protein transferase” (J Med Chem, 1996).

Biological target: Protein farnesyltransferase (Sus scrofa)
Assay: In vitro activity against Protein farnesyltransferase
Details: read-out: I50

SMILES	IC50 [µM]
CC(C)C[C@H](NC(=O)[C@@H](NC(=O)[C@@H](N)CC(=O)N(C)O)C(C)C)C(=O)N[C@@H](CO)C(=O)O	> 360
CC(C)C[C@H](NC(=O)[C@@H](NC(=O)[C@H](CC(=O)N(C)O)NC(=O)OC(C)(C)C)C(C)C)C(=O)N[C@@H](CO)C(=O)O	> 360
CC(C)C[C@H](NC(=O)[C@@H](NC(=O)[C@H](CC(=O)N(C)OCc1ccccc1)NC(=O)OC(C)(C)C)C(C)C)C(=O)N[C@@H](CO)C(=O)O	> 360
CC(C)=CCC/C(C)=C/CC/C(C)=C/CN(O)C(=O)CCC(=O)N[C@H](C(=O)N[C@@H](CC(C)C)C(=O)N[C@@H](CO)C(=O)O)C(C)C	42.5
CC(C)C[C@H](NC(=O)[C@@H](NC(=O)[C@@H](N)CC(=O)N(C)OCc1ccccc1)C(C)C)C(=O)N[C@@H](CO)C(=O)O	> 360

Results, then the compound that gave them:

IC50 [µM]	SMILES
30.5	CSCC[C@@H](NC(=O)[C@@H](NC(=O)[C@@H](NC(=O)CC(=O)N(O)C/C=C(\C)CC/C=C(\C)CCC=C(C)C)C(C)C)C(C)C)C(=O)O
0.33	CSCC[C@H](NC(=O)[C@@H](NC(=O)[C@@H](NC(=O)CC(=O)N(O)C/C=C(\C)CC/C=C(\C)CCC=C(C)C)C(C)C)C(C)C)C(=O)O
5.6	CSCC[C@H](NC(=O)[C@@H](NC(=O)[C@@H](NC(=O)CC(=O)N(O)CC/C=C(\C)CC/C=C(\C)CCC=C(C)C)C(C)C)C(C)C)C(=O)O
